Reference: ChEMBL document CHEMBL3045228, “QSAR study of a series of acyl coenzyme A (CoA): cholesterol acyltransferase inhibitors using genetic function approximation” (Med Chem Res, 2011)

Test: Inhibition of Acyl-coenzyme A:cholesterol acyltransferase (unknown origin) assessed as intracellular cholesterol esterification by cell based assay
Details: Homo sapiens

SMILES	IC50 (read-out: IC50) [µM]	IC50 (read-out: pIC50 (converted)) [µM]
COc1ccc(NC(=C2C(=O)OC(C)(C)OC2=O)N(Cc2ccc(CC(C)(C)C)cc2)CC2CCCC2c2ccccc2)c(OC)c1 (centres undefined)	0.29	0.29
CCCCCC(C)N(Cc1ccc(CC(C)C)cc1)C(Nc1ccc(OC)cc1OC)=C1C(=O)OC(C)(C)OC1=O (centres undefined)	0.24	0.24
COc1ccc(NC(=C2C(=O)OC(C)(C)OC2=O)N(Cc2ccc(C(C)(C)C)cc2)C(C)CCCC(C)C)c(OC)c1 (centres undefined)	0.23	0.23
CN(C)c1ccc(NC(NCCCCCCCCc2ccc(C(C)(C)C)cc2)=C2C(=O)OC(C)(C)OC2=O)cc1	1.1	1.1
COc1ccc(NC(NCCCCCCCCCCCc2ccc(C(C)(C)C)cc2)=C2C(=O)OC(C)(C)OC2=O)c(OC)c1	2.3	2.3
CCCCCC(C)N(Cc1ccc(CC(C)(C)C)cc1)C(Nc1ccc(OC)cc1OC)=C1C(=O)OC(C)(C)OC1=O (centres undefined)	0.83	0.83
CCCCC(CC)N(Cc1ccc(CC(C)(C)C)cc1)C(Nc1ccc(N(C)C)cc1)=C1C(=O)OC(C)(C)OC1=O (centres undefined)	0.19	0.64
CCCCCC(C)N(Cc1ccc(CCC(C)C)cc1)C(Nc1ccc(N(C)C)cc1C)=C1C(=O)OC(C)(C)OC1=O (centres undefined)	0.16	0.16
COc1cc(OC)c(NC(NCCCCCCCCc2ccc(CC(C)(C)C)cc2)=C2C(=O)OC(C)(C)OC2=O)c(OC)c1	0.7	0.7
CCCCCC(C)N(Cc1ccc(C(C)(C)C)cc1)C(Nc1ccc(OCCCC)cc1)=C1C(=O)OC(C)(C)OC1=O (centres undefined)	0.23	0.23
CCCCCc1ccc(CN(C(Nc2ccc(OC)cc2OC)=C2C(=O)OC(C)(C)OC2=O)C(C)CCCCC)cc1 (centres undefined)	0.36	0.36
COc1ccc(NC(=C2C(=O)OC(C)(C)OC2=O)N(Cc2ccc(CC(C)C)cc2C)C(CO[SiH](C)C)CC(C)C)c(OC)c1 (centres undefined)	0.53	0.53
CCCCCC(C)N(Cc1ccc(OCC(C)C)cc1)C(Nc1ccc(OC)cc1OC)=C1C(=O)OC(C)(C)OC1=O (centres undefined)	0.55	0.55
CCCCCC(C)N(Cc1ccc(OCCC(C)C)cc1)C(Nc1ccc(N(C)C)cc1)=C1C(=O)OC(C)(C)OC1=O (centres undefined)	0.21	0.21
COc1ccc(NC(=C2C(=O)OC(C)(C)OC2=O)N(Cc2ccc(CCC(C)C)cc2)C(CC(C)C)CC(C)C)c(OC)c1	1.3	1.3
CCCCCC(C)N(Cc1ccc(CC(C)C)cc1)C(Nc1ccc(N(C)C)cc1C)=C1C(=O)OC(C)(C)OC1=O (centres undefined)	0.35	0.35
COc1ccc(NC(NCCCCCCCCc2ccc(C(C)(C)C)cc2)=C2C(=O)OC(C)(C)OC2=O)c(OC)c1	0.9	0.899
COc1ccc(NC(=C2C(=O)OC(C)(C)OC2=O)N(Cc2ccc(CC(C)C)cc2)C(C)CCCC(C)C)c(OC)c1 (centres undefined)	0.37	0.37
CCCCOc1ccc(NC(=C2C(=O)OC(C)(C)OC2=O)N(Cc2ccc(C(C)(C)C)cc2)C(C)CCCC(C)C)cc1 (centres undefined)	0.69	0.69
CCCCCCC(CCCCCC)N(Cc1ccc(CC(C)C)cc1)C(Nc1ccc(N(C)C)cc1)=C1C(=O)OC(C)(C)OC1=O	0.044	0.044
CCCCCC(C)N(Cc1ccc(C(C)(C)C)cc1)C(Nc1ccc(N(C)C)cc1)=C1C(=O)OC(C)(C)OC1=O (centres undefined)	0.25	0.25
COc1cc(NC(NCCCCCCCCc2ccc(OCCC(C)C)cc2)=C2C(=O)OC(C)(C)OC2=O)cc(OC)c1OC	3.5	3.5
CC1(C)OC(=O)C(=C(NCCCCCCCCc2ccc(C(C)(C)C)cc2)Nc2ccc(Oc3ccccc3)cc2)C(=O)O1	0.92	0.92
CC(C)(C)Cc1ccc(CCCCCCCNC(Nc2cc(C(C)(C)C)c(O)c(C(C)(C)C)c2)=C2C(=O)OC(C)(C)OC2=O)cc1	0.24	0.24

SMILES	IC50 (read-out: IC50) [µM]	IC50 (read-out: pIC50 (converted)) [µM]
CCCCCc1ccc(CN(C(Nc2ccc(N(C)C)cc2)=C2C(=O)OC(C)(C)OC2=O)C(C)CCCCC)cc1 (centres undefined)	0.26	0.26
CCCCCc1ccc(CCCCCCCCNC(Nc2ccc(OC)cc2OC)=C2C(=O)OC(C)(C)OC2=O)cc1	0.84	0.839
CC(C)CCCC(C)N(Cc1ccc(CC(C)C)cc1)C(Nc1ccc(N(C)C)cc1)=C1C(=O)OC(C)(C)OC1=O (centres undefined)	0.27	0.27
COc1ccc(NC(NCCCCCCCCc2ccc(CC(C)C)cc2)=C2C(=O)OC(C)(C)OC2=O)c(OC)c1	0.91	0.91
CCCCCC(C)N(Cc1ccc(CC(C)(C)C)cc1)C(Nc1c(C)cc(N(C)C)cc1C)=C1C(=O)OC(C)(C)OC1=O (centres undefined)	0.38	0.38
COc1ccc(NC(NCc2ccc(C(C)(C)C)cc2)=C2C(=O)OC(C)(C)OC2=O)c(OC)c1	0.26	0.26
CCCCCCOc1ccc(NC(=C2C(=O)OC(C)(C)OC2=O)N(Cc2ccc(CC(C)C)cc2)C(C)CCCCC)cc1 (centres undefined)	0.41	0.41
Cc1cc(N(C)C)cc(C)c1NC(NCCCCCCCCc1ccc(C(C)(C)C)cc1)=C1C(=O)OC(C)(C)OC1=O	0.98	0.979
CCCCCCOc1ccc(NC(NCCCCCCCCc2ccc(C(C)(C)C)cc2)=C2C(=O)OC(C)(C)OC2=O)cc1	0.5	0.5
COc1ccc(NC(NCCCCCCCCc2ccc(OCCC(C)C)cc2)=C2C(=O)OC(C)(C)OC2=O)c(OC)c1	1.5	1.5
CCCCC(CC)N(Cc1ccc(CC(C)(C)C)cc1)C(Nc1ccc(OC)cc1OC)=C1C(=O)OC(C)(C)OC1=O (centres undefined)	0.54	0.54
CCCCCc1ccc(CN(C(Nc2ccc(N(C)C)cc2C)=C2C(=O)OC(C)(C)OC2=O)C(C)CCCCC)cc1 (centres undefined)	0.68	0.242
CC(C)CCc1ccc(CN(C(Nc2ccc(N(C)C)cc2)=C2C(=O)OC(C)(C)OC2=O)C(CC(C)C)CC(C)C)cc1	1.3	1.3
CCCCCC(C)N(Cc1ccc(OC(C)CCC)cc1)C(Nc1ccc(OC)cc1OC)=C1C(=O)OC(C)(C)OC1=O (centres undefined)	0.54	0.54
CC(C)Cc1ccc(CN(C(Nc2ccc(N(C)C)cc2)=C2C(=O)OC(C)(C)OC2=O)C(C)CCCC(C)(C)O)cc1 (centres undefined)	5.2	5.2
CCCCCC(C)N(Cc1ccc(CC(C)(C)C)cc1)C(Nc1ccc(N(C)C)cc1C)=C1C(=O)OC(C)(C)OC1=O (centres undefined)	0.26	0.26
CCCCCC(C)N(Cc1ccc(C(C)(C)C)cc1)C(Nc1cc(OC)c(OC)c(OC)c1)=C1C(=O)OC(C)(C)OC1=O (centres undefined)	0.77	0.769
COc1ccc(NC(NCCCCCCCCc2ccc(CCC(C)C)cc2)=C2C(=O)OC(C)(C)OC2=O)c(OC)c1	3	3
CCCCCC(C)N(Cc1ccc(OCC(C)C)cc1)C(Nc1ccc(N(C)C)cc1)=C1C(=O)OC(C)(C)OC1=O (centres undefined)	0.09	0.0899
COc1ccc(NC(NCCc2ccccc2)=C2C(=O)OC(C)(C)OC2=O)c(OC)c1	2.8	2.8
CCCCCC(C)N(Cc1ccc(CC(C)(C)C)cc1)C(Nc1ccc(C)cc1C)=C1C(=O)OC(C)(C)OC1=O (centres undefined)	0.49	0.49
COc1cc(NC(NCCCCCCCCc2ccc(C(C)(C)C)cc2)=C2C(=O)OC(C)(C)OC2=O)cc(OC)c1OC	2.8	2.8
CC(C)CCOc1ccc(CCCCCCCCNC(Nc2ccc(N(C)C)cc2)=C2C(=O)OC(C)(C)OC2=O)cc1	0.37	0.37
